Common to all, as to assay type: cell-based
Assay [1] has as its target T1, Human GPR120 short form (Homo sapiens, UniProt Q5NUL3).
T1 construct: expressed in transfected cells
T1 sequence (Q5NUL3 1-361): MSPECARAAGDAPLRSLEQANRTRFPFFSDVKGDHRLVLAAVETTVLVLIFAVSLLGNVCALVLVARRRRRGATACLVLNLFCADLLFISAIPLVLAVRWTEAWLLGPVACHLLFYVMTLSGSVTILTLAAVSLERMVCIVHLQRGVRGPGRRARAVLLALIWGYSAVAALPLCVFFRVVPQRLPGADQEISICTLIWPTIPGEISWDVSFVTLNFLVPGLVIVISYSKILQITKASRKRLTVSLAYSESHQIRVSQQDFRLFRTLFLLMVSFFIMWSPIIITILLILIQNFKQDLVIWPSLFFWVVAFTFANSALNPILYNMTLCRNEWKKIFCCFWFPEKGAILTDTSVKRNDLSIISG
Description: Human GPR120 calcium flux assay, Procedure Calcium B. As to conditions: HEK-293 cells expressing human GPR120 short form, 4200 cells/well, FLIPR. The text has this:
(§1) This in vitro assay serves to assess test compound agonist activity against the short splice variant (SVS with Accession number NM_001195755.1 confirmed by sequencing data) of the GPR120 receptor. The Human Short splice variant #2 (NM_001195755.1) is missing an in-frame coding exon compared to variant 1 (the Human Long splice variant NM_181745.3), resulting in a shorter isoform (GPR120-S) lacking a 16 aa protein segment compared to isoform GPR120-L. The assay platform utilizes HEK-293 cells stably transfected to express the Human GPR120 short form. These cells are first loaded with the Ca^+2 sensitive dye, Fluo-4 NW. Upon stimulation, intracellular released Ca^+2 can bind to the dye and alter its fluorescence intensity. This increase in fluorescence signal, and thus the flux in intracellular [Ca^2+], is detected and quantitated by fluorescence imaging using a FLIPR reader. The effect of the agonist is measured as a function of concentration and used to calculate an EC50 based upon a response curve.
In this procedure 4200 cells/well were employed.
(§2) A Human GPR120 clone (Genbank accession number NM_001195755.1) was placed into the pcDNA3.1 mammalian expression vector carrying the neomycin resistance gene. A stable mammalian cell was generated by placing the above clone into a HEK293 background. Clonal cells responding to long chain fatty acids had expression levels of GPR120 confirmed by RT-qPCR. Human HEK-GPR120 cells were cultured in Dulbecco's Modified Eagle's Medium (DMEM)/F12 medium supplemented with 10% fetal bovine serum (FBS), 1% L-Glutamine and 1% penicillin/streptomycin and 0.5 mg/ml G-418. Cells were split 2 times a week to keep the cells in the log-phase growth.
(§3) In preparation for the assay, HEK cells stably transfected with Human GPR120 (2.5K cells per well in 25 uL growth medium) were seeded into 384-well plates and then incubated overnight (37° C., 5% CO2). The next day, the media was changed to 20 μl assay buffer and the cell starved for 1 h at 37° C. The dye loading solution (2× dye) was prepared using 10 ml assay buffer, 100 μl of 250 mM probenecid, 1 bottle of Component A, and 20 μl of dye in DMSO. Twenty μl of the 2× dye loading buffer was then added to each well. The plates were incubated at 37° C. for 30 min, then at room temperature for an additional 15 minutes, before performing the assay on FLIPR.
(§4) Test compounds were prepared in assay buffer (2 μl of test compound+198 μl assay buffer, final DMSO in assay plate is 0.2%) at the desired concentration, more particularly at 100 μM, 50 μM, 25 μM, 12.5 μM, 6.25 μM, 3.125 μM, 1.562 μM, 0.781 μM, 0.391 μM, 0.195 μM, 0.098 μM, 0.049 μM, 0.024 μM and 0.012 μM.
(§5) The assay was performed on a FLIPR plate reader using the following parameters. Baseline was read for 10 seconds at 1 sec intervals. The program was set to transfer 10 μL of ligand from compound plate to cell plate after baseline reading. Aspiration was executed at: 10 μl/sec speed, 4.6 μl height; Dispensing was executed at: 30 μl/sec speed, 45 μl height. After compound addition, each well was read for 300 sec, with measurements collected at 1 sec intervals.
(§6) The kinetic data from the FLIPR was based upon a 5 minute window for data collection. The fluorescence of each sample well was used for individual calculations of a normalized RFU value, which was defined as maximum response minus the minimum response. The normalized fluorescence reading (RFU) was calculated as follows: RFU=Fmax−Fmin
(§7) The data were fitted to a sigmoidal dose-response curve with a variable Hill slope (<2) using nonlinear regression with GraphPad Prism 5.0 to calculate the EC50 values. The Fitting Equation was: Y=Bottom+(Top−Bottom)/(1+10^((LogEC50−X)*HillSlope)), where X is the log of the concentration and Y is the response.

The target in assay [2] is T2, long form of human GPR120 (Homo sapiens, UniProt Q5NUL3).
T2 construct: host or cells: PathHunter CHO-K1 GPR120 β-Arrestin Cell Line
Description: Human GPR120 DiscoveRx PathHunter β-Arrestin assay, Procedure β-arrestin A. The note with it: PathHunter CHO-K1 GPR120 β-Arrestin cell line, 3000 cells per well. The text has this: The binding of an agonist (medium/long chain fatty acids or small molecule agonists) to the G-protein-coupled receptor GPR120 activates phospholipase C, leading to release of intracellular Ca^+2 through the generation of inositol 1,4,5-trisphosphate (InsP3 or IP3). GPR120 activation can also trigger intracellular signaling via recruitment of β-Arrestin. In the present method, agonist-induced activation of the human GPR120 receptor is monitored through the use of PathHunter CHO-K1 GPR120 β-Arrestin Cell Line engineered by DiscoveRx, as detailed below. The cell lines are designed to co-express both the ProLink/Enzyme Donor (PK)-tagged GPCR and the Enzyme […] (EA)-tagged Beta-Arrestin fusion proteins. Upon GPR120 receptor stimulation/activation, the EA-tagged β-Arrestin portion is translocated to the tagged receptor, where the two enzyme fragments are brought within close proximity. Under these conditions, these fragments can interact and form an active Beta-gal enzyme complex through Enzyme Fragment Complementation (EFC). This active Beta-gal complex can enzymatically hydrolyse the substrate to produce a detectable light signal; therefore, activation as a function of agonist concentration can be expressed as an EC50 value to determine relative compound activities. This in vitro assay therefore serves to assess compound agonist activity of the GPR120.
In Procedure β-arrestin A, the cell used were PathHunter CHO-K1 GPR120 β-Arrestin Cell Line, expressing the long form of human GPR120 (Genbank accession number NM_181745), with 3000 cells per well.
The selected CHO-K1 GPR120 β-Arrestin cells were cultured in Ham's F12 media supplemented with 10% fetal bovine serum (FBS), 1% Glutamine, 1×p/s, 800 μg/ml G418 and 300 μg/ml Hygromycin B (for selection). Cell stocks were maintained and grown in a sub-confluent state using standard cell culture procedures. The day before the experiment, the cells were harvested with non-enzymatic cell dissociation buffer and re-suspended in complete growth media at the desired concentration. A Corning 384-plate was then seeded with the proper number of cells in a volume of 25 μL, per well. The seeded plates were incubated overnight at 37° C.
On the day of the experiment, the Assay Buffer containing (a) HBSS with Ca^++ and Mg^++, (b) 20 mM HEPES, and (c) 0.1% BSA stabilizer (pH 7.4) was prepared. The growth medium was gently removed from the cell plates and 20 μL of Assay Buffer added to each well. The plate was then incubated at 37° C. for 60 mins. Test compounds were serially diluted in Assay Buffer to desired concentrations (more particularly, to one or more of the following μM concentrations: 25 μM, 12.5 μM, 6.25 μM, 3.125 μM, 1.562 μM, 0.781 μM, 0.391 μM, 0.195 μM, 0.098 μM, 0.049 μM, 0.024 μM, 0.012 μM). Five μl of compound dilution was then added to each well and the plate incubated at 37° C. for 90 mins. The detection reagents were prepared according to the manufacture's instruction. Twelve μL of the detection reagents were added to each well and the plate incubated at room temperature for 60 mins.
The plates were read on an EnVision instrument, using Protocol name: Luminescence, Plate type: 384 Costar, Measurement height: 3 mm, Measurement time: 1 s, Aperture: 384 Plate aperture. The % activity relative to the positive control was calculated using the following equation:
The % Activity values were plotted versus the concentration of test compound and fitted to a sigmoidal dose-response curve with a Hill slope=1 (fixed value) using nonlinear regression with GraphPad Prism 5.0 to calculate the EC50 values. The Fitting Equation was: Y=Bottom+(Top−Bottom)/(1+10^((LogEC50−X)*HillSlope)), where X is the log of the concentration and Y is the response.

For assay [3], the target named is T1, Human GPR120 short form. Description: Human GPR120 calcium flux assay, Procedure Calcium A. The note with it: HEK-293 cells expressing human GPR120 short form, 2500 cells/well, FLIPR.
From the text: as §1
In this procedure 2500 cells/well were employed.
as §2, §3, §4, §5, §6, §7

Each structure is given as a SMILES string. pEC50: −log10 of the molar value.

T2 sequence (Q5NUL3 1-377 isoform Q5NUL3-1): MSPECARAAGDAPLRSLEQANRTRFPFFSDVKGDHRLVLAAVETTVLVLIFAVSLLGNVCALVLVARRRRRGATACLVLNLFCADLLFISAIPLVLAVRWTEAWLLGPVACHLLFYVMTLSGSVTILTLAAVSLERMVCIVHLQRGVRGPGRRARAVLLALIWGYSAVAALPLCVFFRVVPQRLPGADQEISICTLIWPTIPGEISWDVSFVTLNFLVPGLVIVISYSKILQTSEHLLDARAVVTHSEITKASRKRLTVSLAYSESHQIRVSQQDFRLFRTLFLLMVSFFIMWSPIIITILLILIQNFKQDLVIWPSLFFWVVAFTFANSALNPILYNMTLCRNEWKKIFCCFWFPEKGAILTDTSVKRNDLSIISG
T2 sequence (P32121 whole entry partner): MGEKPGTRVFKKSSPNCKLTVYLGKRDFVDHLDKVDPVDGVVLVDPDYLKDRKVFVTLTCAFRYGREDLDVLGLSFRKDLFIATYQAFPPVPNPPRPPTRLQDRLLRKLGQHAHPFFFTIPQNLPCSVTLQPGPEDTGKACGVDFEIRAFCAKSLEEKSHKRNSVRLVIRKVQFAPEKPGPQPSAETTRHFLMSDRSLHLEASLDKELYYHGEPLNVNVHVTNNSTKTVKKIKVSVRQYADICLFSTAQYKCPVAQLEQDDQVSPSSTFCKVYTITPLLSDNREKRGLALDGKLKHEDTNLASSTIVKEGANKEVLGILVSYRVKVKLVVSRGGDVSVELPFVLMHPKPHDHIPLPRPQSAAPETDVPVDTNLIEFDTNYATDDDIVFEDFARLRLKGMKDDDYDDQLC

As for `CCc1ccc(-n2ccc(C(F)(F)F)c2COc2ccc(CCC(=O)O)c(C)c2C)cc1` [Compound 36, 3-(4-[[1-(4-ethylphenyl)-3-(trifluoromethyl)-1H-pyrrol-2-yl]methoxy]-2,3-dimethylphenyl)propanoic acid], the pEC50 in assay [1] is 6.84; in assay [2], 6.92; in assay [3], 6.35.

Turning to `COc1ccc(-n2ccc(C(F)(F)F)c2COc2c(F)cc(CCC(=O)O)cc2F)cn1` [Compound 51, 3-(3,5-difluoro-4-[[1-(6-methoxypyridin-3-yl)-3-(trifluoromethyl)-1H-pyrrol-2-yl]methoxy]phenyl)propanoic acid], the pEC50 is 6.71 in assay [1] and 6.17 in assay [3].

For the compound `Cc1ccc(-n2ccc(C(F)(F)F)c2COc2ccc(CCC(=O)O)c(F)c2F)cn1` [Compound 53, 3-(2,3-Difluoro-4-{[1-(6-methylpyridin-3-yl)-3-(trifluoromethyl)-1H-pyrrol-2-yl]methoxy}phenyl)propanoic acid], the pEC50 was 6.37 in assay [1] and 5.70 in assay [3].

As to `COc1ccc(-n2ccc(C(F)(F)F)c2COc2ccc(CCC(=O)O)c(F)c2F)cn1` [Compound 57, 3-(2,3-difluoro-4-((1-(6-methoxypyridin-3-yl)-3-(trifluoromethyl)-1H-pyrrol-2-yl)methoxy)phenyl)propanoic acid trifluoroacetic acid], the pEC50 in assay [1] was 7.11; in assay [3] it was 6.08.

As to `Cc1c(CCCO)ccc(OCc2c(Br)ccn2-c2ccc(Cl)cc2)c1C` [Compound 13, 3-(4-{[3-Bromo-1-(4-chlorophenyl)-1H-pyrrol-2-yl]methoxy}-2,3-dimethylphenyl)propan-1-ol], the pEC50 in assay [1] was 6.05; in assay [3], 5.81.

For the compound `N#Cc1ccn(-c2ccc(Cl)cc2)c1COc1ccc(CCC(=O)O)c(F)c1F` [Compound 9, 3-(4-{[1-(4-Chlorophenyl)-3-cyano-1H-pyrrol-2-yl]methoxy}-2,3-difluorophenyl)propanoic acid], the pEC50 is 5.86 in assay [1] and 5.43 in assay [3].

Turning to `Cc1c(CCCO)ccc(OCc2c(C(F)(F)F)ccn2-c2ccc(Br)cc2)c1C` [Compound 18, 3-(4-{[1-(4-Bromophenyl)-3-(trifluoromethyl)-1H-pyrrol-2-yl]methoxy}-2,3-dimethylphenyl)propan-1-ol], the pEC50 was 6.21 in assay [1] and 5.88 in assay [3].

For the compound `CCc1ccc(-n2ccc(C(F)(F)F)c2COc2c(F)cc(CCCO)cc2F)cn1` [Compound 55, 3-(4-[[1-(6-ethylpyridin-3-yl)-3-(trifluoromethyl)-1H-pyrrol-2-yl]methoxy]-3,5-difluorophenyl)propan-1-ol], the pEC50 in assay [1] is 7.47; in assay [3], 6.67.

On to `O=C(O)CCc1ccc(OCc2c(C(F)(F)F)ccn2-c2ccc(Br)cc2)c(F)c1F` [Compound 20, 3-(4-{[1-(4-Bromophenyl)-3-(trifluoromethyl)-1H-pyrrol-2-yl]methoxy}-2,3-difluorophenyl)propanoic acid], for which the pEC50 in assay [1] was 6.54; in assay [3], 5.90.

With `O=C(O)CCc1cc(F)c(OCc2c(C(F)(F)F)ccn2-c2ccc(Br)cc2)c(F)c1` [Compound 22, 3-(4-{[1-(4-Bromophenyl)-3-(trifluoromethyl)-1H-pyrrol-2-yl]methoxy}-3,5-difluorophenyl)propanoic acid], the values for the negative logarithm of the EC50 (pEC50) in assay [1] and in assay [3] were 6.95 and 5.82, respectively.

For the compound `Cc1ccc(-n2ccc(C(F)(F)F)c2COc2ccc(CCCO)c(C)c2C)cc1` [Compound 45, 3-(2,3-dimethyl-4-[[1-(4-methylphenyl)-3-(trifluoromethyl)-1H-pyrrol-2-yl]methoxy]phenyl)propan-1-ol], the figures for the pEC50 in assay [1] and in assay [3] were 6.29 and 5.84, respectively.

With `CCc1ccc(-n2ccc(C(F)(F)F)c2COc2c(F)cc(CCC(=O)O)cc2F)cn1` [Compound 56, 3-(4-[[1-(6-ethylpyridin-3-yl)-3-(trifluoromethyl)-1H-pyrrol-2-yl]methoxy]-3,5-difluorophenyl)propanoic acid], the figures for the pEC50 in assay [1] and in assay [3] were 6.06 and 5.85, respectively.

(Values after patent US8912227B1, “Bicyclic pyrrole derivatives useful as agonists of GPR120” (Janssen Pharmaceutica NV, priority 2014, dated 2014).)
